Test system: influenza A virus FM1 strain
Type: cell-based

NC(=O)c1ncn([C@@H]2O[C@H](CO)[C@@H](O)[C@H]2O)n1 [Ribavirin]
inhibitory effect on FM1 (in words): markedly inhibitory effect

Source: patent US8551541B2, “Disinfectant making air fresh and preparation and method and use thereof” (priority 2009, dated 2013)
